In the CheMixHub drug solubility set:

Assay: xn = mol fraction of the nth substance listed, in the solute-free solvent

Nc1cccc(S(=O)(=O)c2cccc(N)c2)c1 + CC(C)O + O
solubility (g/100 g solution)
Conditions	283.15 K	288.15 K	293.15 K	298.15 K	303.15 K	308.15 K	313.15 K	318.15 K	323.15 K	328.15 K
x2 = 0.03225	0.0588	0.08	0.109	0.143	0.188	0.248	0.319	0.411	0.517	0.662
x2 = 0.06974	0.109	0.146	0.196	0.259	0.34	0.424	0.549	0.698	0.874	1.09
x2 = 0.1139	0.169	0.219	0.286	0.375	0.488	0.618	0.782	0.98	1.22	1.52
x2 = 0.1666	0.236	0.312	0.396	0.516	0.657	0.834	1.05	1.3	1.59	1.98
x2 = 0.2307	0.299	0.388	0.5	0.652	0.816	1.02	1.28	1.6	1.97	2.4
x2 = 0.3103	0.36	0.459	0.599	0.751	0.954	1.2	1.51	1.84	2.24	2.73
x2 = 0.4117	0.398	0.513	0.662	0.841	1.07	1.34	1.65	2.05	2.48	3.01
x2 = 0.5454	0.424	0.54	0.702	0.895	1.11	1.4	1.71	2.14	2.62	3.17
x2 = 0.7297	0.432	0.543	0.686	0.878	1.11	1.38	1.72	2.09	2.57	3.12

CC(N)C(=O)O (configuration not stated) + O + CO
solubility (g/100 g solution)
Conditions	x2 = 0.1	x2 = 0.2	x2 = 0.3	x2 = 0.4	x2 = 0.5	x2 = 0.6	x2 = 0.7	x2 = 0.8	x2 = 0.9
283.15 K	0.123	0.167	0.315	0.44	0.705	1.21	1.99	3.46	6.52
293.15 K	0.142	0.222	0.377	0.571	0.899	1.53	2.53	4.26	7.7
303.15 K	0.159	0.281	0.434	0.667	1.11	1.88	3.07	5.17	8.92
313.15 K	0.178	0.331	0.492	0.816	1.39	2.35	3.85	6.26	10.4
323.15 K	0.193	0.424	0.627	1.03	1.77	2.95	4.69	7.21	11.9

CC(CCc1ccccc1)NCC(O)c1ccc(O)c(C(N)=O)c1.Cl (configuration not stated) + CO + CC#N
solubility (g/100 g solution)
Conditions	288.15 K	293.15 K	298.15 K	303.15 K	308.15 K	313.15 K	318.15 K	323.15 K	328.15 K
x2 = 0.2426	0.0461	0.0674	0.0984	0.137	0.19	0.268	0.388	0.533	0.751
x2 = 0.3544	0.126	0.167	0.222	0.282	0.389	0.49	0.639	0.847	1.1
x2 = 0.4606	0.172	0.234	0.323	0.436	0.58	0.766	1.03	1.38	1.81
x2 = 0.5616	0.411	0.533	0.674	0.884	1.1	1.4	1.74	2.17	2.71
x2 = 0.6577	0.787	0.998	1.23	1.54	1.92	2.35	2.89	3.46	4.2
x2 = 0.7493	1.73	2.02	2.44	2.83	3.37	3.94	4.42	5.29	6.03
x2 = 0.8367	2.23	2.77	3.37	4.11	5.04	6.01	7.18	8.54	10.1
x2 = 0.9202	4.34	5.22	6.18	7.32	8.68	10.1	11.7	13.5	15.6

COC(=O)C(C)(C)N=NC(C)(C)C(=O)OC + CO + O
Conditions	solubility (g/100 g solution)
252.55 K, x2 = 0.692	1.72
252.85 K, x2 = 0.914	5.48
252.95 K, x2 = 0.628	1.36
253.15 K, x2 = 0.835	4.25
253.35 K, x2 = 0.511	0.455
253.45 K, x2 = 0.578	0.701
254.15 K, x2 = 0.761	2.82
254.75 K, x2 = 0.692	2.04
255.35 K, x2 = 0.628	1.61
255.55 K, x2 = 0.914	7.08
255.95 K, x2 = 0.578	0.875
255.95 K, x2 = 0.835	5.53
256.55 K, x2 = 0.511	0.546
256.65 K, x2 = 0.761	3.73
257.35 K, x2 = 0.692	3.07
257.95 K, x2 = 0.628	2.02
258.55 K, x2 = 0.578	1.31
259.05 K, x2 = 0.511	0.817
259.85 K, x2 = 0.914	9.9
260.15 K, x2 = 0.835	7.93
260.55 K, x2 = 0.761	5.93
261.05 K, x2 = 0.692	4.39
261.65 K, x2 = 0.628	2.76
262.15 K, x2 = 0.578	2.5
262.75 K, x2 = 0.511	1.35
263.35 K, x2 = 0.914	12.7
263.75 K, x2 = 0.835	9.97
263.95 K, x2 = 0.761	6.93
264.35 K, x2 = 0.692	5.15
264.85 K, x2 = 0.628	4.05
265.25 K, x2 = 0.578	3.25
265.75 K, x2 = 0.511	2.24
265.95 K, x2 = 0.914	14.4
266.15 K, x2 = 0.835	11.5
266.35 K, x2 = 0.761	8.33
267.95 K, x2 = 0.511	3.2
268.05 K, x2 = 0.628	5.71
268.05 K, x2 = 0.692	7.96
268.05 K, x2 = 0.761	9.69
268.05 K, x2 = 0.835	12.8
268.05 K, x2 = 0.914	16.6
268.25 K, x2 = 0.578	5.05
273.25 K, x2 = 0.835	20.2
273.35 K, x2 = 0.511	5.31
273.35 K, x2 = 0.578	7.79
273.35 K, x2 = 0.628	9.15
273.35 K, x2 = 0.914	26.6
273.45 K, x2 = 0.692	12.2
273.55 K, x2 = 0.761	17.3
275.55 K, x2 = 0.914	32
275.65 K, x2 = 0.511	6.38
275.65 K, x2 = 0.578	8.78
275.65 K, x2 = 0.835	25.5
275.75 K, x2 = 0.692	16.8
275.75 K, x2 = 0.761	20.5
275.85 K, x2 = 0.628	12.8
278.15 K, x2 = 0.835	32.7
278.15 K, x2 = 0.914	38.9
278.25 K, x2 = 0.761	27.3
278.35 K, x2 = 0.511	7.35
278.35 K, x2 = 0.578	10.2
278.35 K, x2 = 0.628	16
278.35 K, x2 = 0.692	21.6
280.65 K, x2 = 0.914	47.1
280.75 K, x2 = 0.692	27.6
280.75 K, x2 = 0.761	33.4
280.75 K, x2 = 0.835	39.1
280.85 K, x2 = 0.628	20.5
280.95 K, x2 = 0.578	15.1
281.05 K, x2 = 0.511	9.61
283.05 K, x2 = 0.578	21
283.05 K, x2 = 0.835	51.4
283.05 K, x2 = 0.914	55.7
283.15 K, x2 = 0.692	36.3
283.15 K, x2 = 0.761	44.2
283.45 K, x2 = 0.511	12.7
283.45 K, x2 = 0.628	28.1
285.65 K, x2 = 0.835	62.4
285.65 K, x2 = 0.914	66.9
285.75 K, x2 = 0.578	29.5
285.75 K, x2 = 0.628	39
285.75 K, x2 = 0.692	48.6
285.75 K, x2 = 0.761	56.4
285.85 K, x2 = 0.511	19.1
288.15 K, x2 = 0.578	42.6
288.15 K, x2 = 0.628	55.9
288.25 K, x2 = 0.761	71.5
288.25 K, x2 = 0.835	75.3
288.25 K, x2 = 0.914	78.2
288.35 K, x2 = 0.692	65.6
290.65 K, x2 = 0.628	77.7
290.65 K, x2 = 0.914	86.1
290.75 K, x2 = 0.692	81.5
290.75 K, x2 = 0.761	83.9
290.75 K, x2 = 0.835	85.1
293.15 K, x2 = 0.761	91.5
293.15 K, x2 = 0.835	91.5
293.15 K, x2 = 0.914	91.9
293.25 K, x2 = 0.692	91.2
293.35 K, x2 = 0.628	91.1
